PubChem BioAssay (NCI)
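Following 48 hours of exposure in 96-well plates, responses at five concentrations were used to interpolate endpoints linearly. TGI denotes the concentration required for complete inhibition of growth.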

Experiments:
Assay in all cases: DTP human tumour cell line panel, 48 h
[1] = tested on: COLO 205 colon
[2] = tested on: DU-145 prostate
[3] = tested on: EKVX NSCLC
[4] = tested on: HOP-92 NSCLC
[5] = tested on: HS 578T breast
[6] = tested on: NCI-H522 lung
[7] = tested on: OVCAR-3 ovarian
[8] = tested on: PC-3 prostate
[9] = tested on: SK-MEL-28 melanoma
[10] = tested on: SK-OV-3 ovarian
[11] = tested on: SNB-75 CNS
[12] = tested on: UO-31 renal
[13] = tested on: SK-MEL-5 melanoma

Row | SMILES | TGI [1] [µM] | TGI [2] [µM] | TGI [3] [µM] | TGI [4] [µM] | TGI [5] [µM] | TGI [6] [µM] | TGI [7] [µM] | TGI [8] [µM] | TGI [9] [µM] | TGI [10] [µM] | TGI [11] [µM] | TGI [12] [µM] | TGI [13] [µM]
1 | CC(C)=CCC/C(C)=C/CC/C(C)=C/CC/C(C)=C/CC/C(C)=C\CC/C(C)=C/CC/C(C)=C/CC/C(C)=C/Cc1cc(O)ccc1O | > 100 | > 72.9 | 8.83 | > 32.8 | 8.93 | 4.34 | 1.94 | 2.44 | > 100 | 15.6 | 11.6 | 5.71 | 
2 | CCC1C(c2cc(OC)c(OC)c(OC)c2)c2cc3c(cc2OC1N1CCOCC1)OCO3 (stereo not given) | 22.4 | 28.9 | 54.1 | 41 | 28.9 | 21.8 | 18.7 | 14.1 |  | 23.4 | 26.3 | 17.5 | 6.38
3 | CC1(C)CC(=O)c2c(nc3ccc4ccccc4c3c2-c2ccc(NC(=O)CCC(=O)Nc3ccc(-c4c5c(nc6ccc7ccccc7c46)CC(C)(C)CC5=O)cc3)cc2)C1 | > 100 | > 100 | > 100 |  | > 100 | > 100 | > 100 | > 100 | > 100 | > 100 | > 100 | > 100 | > 100
4 | CCCCOC(=O)C(O)Cc1ccoc1 (stereo not given) | > 100 | > 100 | > 100 |  | > 100 | > 100 | > 100 | > 100 | > 100 | > 100 | > 100 | > 100 | > 100
5 | COC(=O)/C=c1/c2ccccc2n2nc3ccccc3c12 | > 100 | > 100 | > 100 |  | > 100 | > 100 | > 100 | > 100 | > 100 | 61.3 |  | > 100 | > 100
6 | C#C[C@]1(O)CC[C@H]2[C@@H]3CCc4cc(OC(=O)c5cccc6cc7ccccc7nc56)ccc4[C@H]3CC[C@@]21C | 43.7 | 78.9 | > 100 | > 100 | > 100 | 50.5 | 63 | > 100 | > 100 | > 100 | > 100 |  | 29.5
7 | C[C@H](O)C1CC(Cn2nnc3c(N)ncnc32)C1(C)C (stereo not given in full) |  | > 100 | > 100 | > 100 | > 100 |  | > 100 | > 100 | > 100 | > 100 | > 100 | > 100 | > 100
8 | Cc1cccc(NC(=S)Nc2ccccc2Cl)n1 | > 100 | > 100 | 67.8 |  | > 100 |  | > 100 | > 100 | > 100 | 51.8 | 52.7 | > 100 | > 100
9 | O=[N+]([O-])c1cn[n+]([O-])c2ccccc12 | 26.5 | 3.79 | 26.1 | 28.4 | 29.1 |  | 7.28 | 23.3 | 26.1 | 26.3 |  |  | 26.7
10 | CCC(CCCC[C@@H]1CC[C@H]2CC(=O)C[C@@H]12)OC (stereo not given in full) | > 100 | > 100 | > 100 | > 100 | > 100 | > 100 | > 100 | > 100 | > 100 | > 100 | > 100 |  | > 100
